PubChem BioAssay AID1845202 (Molecular Pharmacology Branch, DTP, NCI, 2023)
Where “and” joins values, the source holds several entries; their conditions need not be identical. Equal entries are not always repeated.

Tested on: DMS 114 tumor spheroids, viability % test/control
Assay: Anticancer human tumor DMS 114 cell line growth inhibition;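 further: spheroids exposed to compounds for 7 days before read-out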;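 on viability, T/C: luminescence used as a proxy for viable cells; 100% = DMSO vehicle control viability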
Details: spheroids with HUVEC and MSC; for viability, T/C: stronger effect = lower value
Method in brief: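 Complex tumor spheroids combined malignant cells with endothelial cells and mesenchymal stem cells. DNA-damaging drugs and DNA repair inhibitors were tested alone and in combination, at half-log dilutions down from clinical Cmax (top 10 microM if Cmax unknown), 0.25% DMSO final.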

[1] = curve of first compound, second compound 0.003 µM

**Q.** Which IC50 (curve of first compound, second compound 30 pM) does the source give for `Cc1sc2c(c1C)C(c1ccc(Cl)cc1)=NC(CC(=O)Nc1ccc(O)cc1)c1nnc(C)n1-2` (centres undefined) + COc1cc2c(cc1O)CCNC21CSC2c3c(OC(C)=O)c(C)c4c(c3C(COC1=O)N1C(O)C3Cc5cc(C)c(OC)c(O)c5C(C21)N3C)OCO4 here?
**A.** 165 nM

**Q.** And the IC50 (curve of first compound, second compound 94.9 pM)?
**A.** 97.3 nM

**Q.** What about the IC50 (curve of first compound, second compound 0.0003 µM) of the same compound?
**A.** < 9.49 nM

**Q.** And the IC50 (curve of first compound, second compound 0.000949 µM)?
**A.** < 9.49 nM

**Q.** And the IC50 [1]?
**A.** < 9.49 nM

**Q.** And the viability, T/C (second compound 30 pM, first compound 0.00949 µM)?
**A.** 107%

**Q.** What about the viability, T/C (second compound 30 pM, first compound 0.03 µM) of the same compound?
**A.** 102%

**Q.** And the viability, T/C (second compound 30 pM, first compound 0.0949 µM)?
**A.** 65.1%

**Q.** What about the viability, T/C (second compound 30 pM, first compound 0.3 µM) of the same compound?
**A.** 33.3%

**Q.** What about the viability, T/C (second compound 30 pM, first compound 0.949 µM) of the same compound?
**A.** 5.12%

**Q.** What about the viability, T/C (second compound 30 pM, first compound 3 µM) of the same compound?
**A.** 3.29%

**Q.** And the viability, T/C (second compound 94.9 pM, first compound 0.00949 µM)?
**A.** 101%

**Q.** What about the viability, T/C (second compound 94.9 pM, first compound 0.03 µM) of the same compound?
**A.** 80.1%

**Q.** And the viability, T/C (second compound 94.9 pM, first compound 0.0949 µM)?
**A.** 55.4%

**Q.** What about the viability, T/C (second compound 94.9 pM, first compound 0.3 µM) of the same compound?
**A.** 12.1%

**Q.** What about the viability, T/C (second compound 94.9 pM, first compound 0.949 µM) of the same compound?
**A.** 5.83%

**Q.** And the viability, T/C (second compound 94.9 pM, first compound 3 µM)?
**A.** 1.91%

**Q.** What about the viability, T/C (second compound 0.0003 µM, first compound 0.00949 µM) of the same compound?
**A.** 41.7%

**Q.** And the viability, T/C (second compound 0.0003 µM, first compound 0.03 µM)?
**A.** 27.1%

**Q.** What about the viability, T/C (second compound 0.0003 µM, first compound 0.0949 µM) of the same compound?
**A.** 13.1%

**Q.** What about the viability, T/C (second compound 0.0003 µM, first compound 0.3 µM) of the same compound?
**A.** 5.79%

**Q.** And the viability, T/C (second compound 0.0003 µM, first compound 0.949 µM)?
**A.** 1.67%

**Q.** What about the viability, T/C (second compound 0.0003 µM, first compound 3 µM) of the same compound?
**A.** 0.76%

**Q.** What about the viability, T/C (second compound 0.000949 µM, first compound 0.00949 µM) of the same compound?
**A.** 3.12%

**Q.** And the viability, T/C (second compound 0.000949 µM, first compound 0.03 µM)?
**A.** 1.58%

**Q.** What about the viability, T/C (second compound 0.000949 µM, first compound 0.0949 µM) of the same compound?
**A.** 1.35%

**Q.** And the viability, T/C (second compound 0.000949 µM, first compound 0.3 µM)?
**A.** 0.73%

**Q.** And the viability, T/C (second compound 0.000949 µM, first compound 0.949 µM)?
**A.** 0.39%

**Q.** What about the viability, T/C (second compound 0.000949 µM, first compound 3 µM) of the same compound?
**A.** 0.19%

**Q.** What about the viability, T/C (second compound 0.003 µM, first compound 0.00949 µM) of the same compound?
**A.** 0.2%

**Q.** And the viability, T/C (second compound 0.003 µM, first compound 0.03 µM)?
**A.** 0.19%

**Q.** What about the viability, T/C (second compound 0.003 µM, first compound 0.0949 µM) of the same compound?
**A.** 0.17%

**Q.** And the viability, T/C (second compound 0.003 µM, first compound 0.3 µM)?
**A.** 0.13%

**Q.** And the viability, T/C (second compound 0.003 µM, first compound 0.949 µM)?
**A.** 0.16%

**Q.** And the viability, T/C (second compound 0.003 µM, first compound 3 µM)?
**A.** 0.3%

**Q.** What does the source list for `[2H]c1nc(C)nc([2H])c1-c1cc(NC[C@@H](C)c2cccc3c(C(=O)NC)ccnc23)ncn1`?
**A.** viability, T/C (compound 0.0316 µM): 103% and 104% (2×); viability, T/C (compound 0.1 µM): 109% and 103% and 111%; viability, T/C (compound 0.316 µM): 105% and 99.8% and 113%; viability, T/C (compound 1 µM): 105% and 103% and 96.1%; viability, T/C (compound 3.16 µM): 101% and 98% and 103%; viability, T/C (compound 10 µM): 96.1% and 93.5% and 87.6%; IC50 (curve of compound): > 10000 nM

**Q.** `Cc1cc(C)c(CNC(=O)c2cc(-c3ccc(CN4CCOCC4)cc3)cc3c2cnn3C2CCCC2)c(=O)[nH]1` was tested. Which viability, T/C (compound 0.0316 µM) did it give?
**A.** 99.2% and 94.7% and 96.4%

**Q.** What about the viability, T/C (compound 0.1 µM) of the same compound?
**A.** 104% and 96.8% and 102%

**Q.** And the viability, T/C (compound 0.316 µM)?
**A.** 103% and 113% and 108%

**Q.** And the viability, T/C (compound 1 µM)?
**A.** 116% and 115% (2×)

**Q.** What about the viability, T/C (compound 3.16 µM) of the same compound?
**A.** 106% and 110% and 103%

**Q.** And the viability, T/C (compound 10 µM)?
**A.** 62.3% and 78% and 72.8%

**Q.** And the IC50 (curve of compound)?
**A.** > 10000 nM

**Q.** With `COc1ccc([C@@H](O)c2cc(-c3ncnc4cc(N5CCOCC5)ccc34)c(F)cc2Cl)nn1` + CC[C@@]1(O)C(=O)OCc2c1cc1n(c2=O)Cc2cc3c(CN(C)C)c(O)ccc3nc2-1 as the compound, how does the IC50 [1] read?
**A.** 5390 nM

**Q.** What about the IC50 (curve of first compound, second compound 0.00949 µM) of the same compound?
**A.** 1760 nM

**Q.** And the IC50 (curve of first compound, second compound 0.03 µM)?
**A.** < 31.6 nM

**Q.** What about the IC50 (curve of first compound, second compound 0.0949 µM) of the same compound?
**A.** < 31.6 nM

**Q.** What about the IC50 (curve of first compound, second compound 0.3 µM) of the same compound?
**A.** < 31.6 nM

**Q.** And the viability, T/C (second compound 0.003 µM, first compound 0.0316 µM)?
**A.** 116%

**Q.** What about the viability, T/C (second compound 0.003 µM, first compound 0.1 µM) of the same compound?
**A.** 110%

**Q.** And the viability, T/C (second compound 0.003 µM, first compound 0.316 µM)?
**A.** 109%

**Q.** What about the viability, T/C (second compound 0.003 µM, first compound 1 µM) of the same compound?
**A.** 106%

**Q.** What about the viability, T/C (second compound 0.003 µM, first compound 3.16 µM) of the same compound?
**A.** 69%

**Q.** And the viability, T/C (second compound 0.003 µM, first compound 10 µM)?
**A.** 27.9%

**Q.** And the viability, T/C (second compound 0.00949 µM, first compound 0.0316 µM)?
**A.** 89.9%

**Q.** And the viability, T/C (second compound 0.00949 µM, first compound 0.1 µM)?
**A.** 73.8%

**Q.** What about the viability, T/C (second compound 0.00949 µM, first compound 0.316 µM) of the same compound?
**A.** 78.9%

**Q.** What about the viability, T/C (second compound 0.00949 µM, first compound 1 µM) of the same compound?
**A.** 57.7%

**Q.** And the viability, T/C (second compound 0.00949 µM, first compound 3.16 µM)?
**A.** 40.2%

**Q.** And the viability, T/C (second compound 0.00949 µM, first compound 10 µM)?
**A.** 17.3%

**Q.** And the viability, T/C (second compound 0.03 µM, first compound 0.0316 µM)?
**A.** 30.8%

**Q.** And the viability, T/C (second compound 0.03 µM, first compound 0.1 µM)?
**A.** 32.4%

**Q.** What about the viability, T/C (second compound 0.03 µM, first compound 0.316 µM) of the same compound?
**A.** 32.8%

**Q.** And the viability, T/C (second compound 0.03 µM, first compound 1 µM)?
**A.** 25.5%

**Q.** And the viability, T/C (second compound 0.03 µM, first compound 3.16 µM)?
**A.** 13.7%

**Q.** And the viability, T/C (second compound 0.03 µM, first compound 10 µM)?
**A.** 13.5%

**Q.** What about the viability, T/C (second compound 0.0949 µM, first compound 0.0316 µM) of the same compound?
**A.** 16.2%

**Q.** What about the viability, T/C (second compound 0.0949 µM, first compound 0.1 µM) of the same compound?
**A.** 16.6%

**Q.** And the viability, T/C (second compound 0.0949 µM, first compound 0.316 µM)?
**A.** 16.4%

**Q.** What about the viability, T/C (second compound 0.0949 µM, first compound 1 µM) of the same compound?
**A.** 14%

**Q.** What about the viability, T/C (second compound 0.0949 µM, first compound 3.16 µM) of the same compound?
**A.** 10.1%

**Q.** What about the viability, T/C (second compound 0.0949 µM, first compound 10 µM) of the same compound?
**A.** 7.97%

**Q.** What about the viability, T/C (second compound 0.3 µM, first compound 0.0316 µM) of the same compound?
**A.** 10.7%

**Q.** And the viability, T/C (second compound 0.3 µM, first compound 0.1 µM)?
**A.** 9.61%

**Q.** And the viability, T/C (second compound 0.3 µM, first compound 0.316 µM)?
**A.** 9.29%

**Q.** What about the viability, T/C (second compound 0.3 µM, first compound 1 µM) of the same compound?
**A.** 10.1%

**Q.** What about the viability, T/C (second compound 0.3 µM, first compound 3.16 µM) of the same compound?
**A.** 6.94%

**Q.** And the viability, T/C (second compound 0.3 µM, first compound 10 µM)?
**A.** 5.57%
